Series [1] can be described thus: Protection against UVB irradiation-induced cell damage in NHEK assessed as inhibition of PGE2 production at 2 uM pretreated for 24 hrs before UVB irradiation measured after 24 hrs by enzymatic immunoassay. In kind it is functional. To be noted: Homo sapiens, light or radiation study.
The test system of series [2] is Keratinocyte. The experiment in a line: Protection against UVB irradiation-induced SV40-transformed human keratinocytes damage assessed as inhibition of PGE2 production at 30 uM pretreated for 24 hrs before UVB irradiation measured after 24 hrs by ELISA. In kind it is functional, cell-based. For orientation: An ELISA detects its analyte on a solid surface through an enzyme-linked reagent.

Series [3] is described as follows: Protection against IL1-beta-induced cell damage in NHEK assessed as inhibition of PGE2 production at 0.5 uM pretreated for 24 hrs before IL1-beta challenge measured after 24 hrs by enzymatic immunoassay. In kind it is functional. To be noted: Homo sapiens.
A short description of series [4]: Protection against H2O2-induced cell damage in NHEK assessed as inhibition of PGE2 production at 2 uM pretreated for 24 hrs before H2O2 challenge measured after 24 hrs by enzymatic immunoassay. In kind it is functional. As to conditions: Homo sapiens.
The nature of series [5]: Protection against IL1-beta-induced cell damage in NHEK assessed as inhibition of PGE2 production at 2 uM pretreated for 24 hrs before IL1-beta challenge measured after 24 hrs by enzymatic immunoassay. Type of series: functional. To be noted: Homo sapiens.
The species named for series [6] is Homo sapiens. Kind of series: Protection against H2O2-induced cell damage in NHEK assessed as inhibition of PGE2 production at 0.5 to 2 uM after 24 hrs by enzymatic immunoassay. Type of series: functional.
The nature of series [7]: (§1) Protection against t-BHP-induced cell damage in NHEK assessed as inhibition of PGE2 production at 2 uM pretreated for 24 hrs before t-BHP challenge measured after 24 hrs by enzymatic immunoassay. Type of series: functional. To be noted: Homo sapiens.
Series [8] can be described thus: Protection against IL1-beta-induced cell damage in NHEK assessed as inhibition of PGE2 production at 0.1 uM pretreated for 24 hrs before IL1-beta challenge measured after 24 hrs by enzymatic immunoassay. Type of series: functional. To be noted: Homo sapiens.
Series [9] concerns Zone of skin. The experiment in a line: Prodrug conversion in 3D restructured human skin model assessed as conversion of compound to dl-alpha-tocopherol at 2% after 4 hrs by HPLC analysis. In kind it is ADME, tissue-based.
The species entered for series [10] is Homo sapiens. Described as §1. In kind it is functional.
Series [11] is described as follows: Protection against H2O2-induced cell damage in NHEK assessed as inhibition of PGE2 production at 0.5 to 2 uM pretreated for 24 hrs before H2O2 challenge measured after 24 hrs by enzymatic immunoassay. In kind it is functional, Homo sapiens.

The source of these data is ChEMBL document CHEMBL1921754, “Sodium dl-α-tocopheryl-6-O-phosphate inhibits PGE₂ production in keratinocytes induced by UVB, IL-1β and peroxidants” (Bioorg Med Chem, 2011).

Activity calls are given as the source filed them. The rule behind the calls is not given here.

As a reminder, the inhibition is the drop in the measured response relative to a control, in per cent.

For `Cc1ccc(S(=O)(=O)/C=C/C#N)cc1`, the inhibition at 2 µM in series [1] worked out at 9%.

Turning to `O=C1O[C@H]([C@@H](O)CO)C(O)=C1OP(=O)(O)O`, the inhibition entry in series [2] was “inactive”.

For `CC(=O)Oc1c(C)c(C)c2c(c1C)CC[C@@](C)(CCC[C@H](C)CCC[C@H](C)CCCC(C)C)O2` (racemic), the inhibition at 0.5 µM in [3] stood at 40%. Besides, the inhibition at 2 µM in series [4] came to 25%; in series [5], 67%; in series [7] it was 77.4%. Also, the inhibition entry in [6] was “inactive”. The inhibition at 0.1 µM in series [8] amounted to 38%. The Drug metabolism result in [9] is reported as “Active”.

Consider `CC1(C)[C@@H](O[C@H]2O[C@H](C(=O)[O-])[C@@H](O)[C@H](O)[C@H]2O[C@@H]2O[C@H](C(=O)[O-])[C@@H](O)[C@H](O)[C@H]2O)CC[C@]2(C)[C@H]3C(=O)C=C4[C@@H]5C[C@@](C)(C(=O)O)CC[C@]5(C)CC[C@@]4(C)[C@]3(C)CC[C@@H]12.[K+].[K+]` [GLYCYRRHIZINATE DIPOTASSIUM], for which, in series [3], the inhibition at 0.5 µM is 14%. In addition, in [5], the inhibition at 2 µM stood at 24%. The inhibition result in series [6] and in [10] was “inactive” throughout. For the same compound, the “inhibition (INH)” value in [11] is 40%.

As for `C[S+]([O-])c1ccc(-c2nc(-c3ccc(F)cc3)c(-c3ccncc3)[nH]2)cc1` (stereo unspecified) [SB-203580], the inhibition at 2 µM in [1] came to 73%.

Take `Oc1c2ccccc2c2c3c(cccc13)N=N2` [SP-600125]: the inhibition at 2 µM in [1] worked out at 33%.
